From patent US8217085B2 (priority 2009, dated 2012)
“And” between values parts separate entries of the source, which are not always exact repeats. Equal values may be shown once. Read-outs that look alike come from different tables or passages of the source.

Assays:
[1] = test system: ATCC strain 43300 Staphylococcus aureus
Procedure: Additional antibiotic was added every 24 hours.
USP<51> Antimicrobial Effectiveness protocol was used as the template experimental paradigm. […] All concentrations were plated out to the 10^−7 dilutionsto ascertain cfu/ml. […] Additional antibiotic was added at the initial concentration every 24 hours.
ATCC strain 43300 Staphylococcus aureus was streaked out for isolations. An isolated colony was chosen, streaked again and incubated. Isolate was chosen and then diluted to a McFarland standard of one. The estimated value was then taken to inoculate tubes containing growth media and 12, 30 or 60 μg/ml oxacillin with approximately 10^5 cfu/ml. These tubes were incubated and plated for counting cfu.
Material was calculated on a 10 ml volume. Sterile oxacillin was added to each experimental condition to a final concentration of 12, 30 or 60 μg/ml antibiotic.
All tubes were then inoculated with a dilution of the selected ATCC strain 43300 Staphylococcus aureus clone giving a final level of colony forming units of 3.3×10^5/ml (log=5.52). The tubes were incubated at 25° C. and mixed periodically. Antibiotic was re-inoculated every 24 hours at the initial concentration to maintain pressure on the organism. Plating was done at 24, 48, 72, and 120 hours. Each condition was plated by diluting 1 ml of growth material into 9 ml of MLB diluent broth. […] This mixture was serial diluted down to 10^−7 with 1 ml placed in triplicate in a sterile petri dish at each dilution point. 20 mls of TSA was added to each dilution, swirled and allowed to solidify. All dilutions were placed in a 35° C. incubator for 24 to 72 hours. Bacterial colonies on each plate were counted and the average taken then changed into log format. Any cfu/ml observed greater than 3.3×10^5 (log=5.5) were recorded as >3.3×10^5.

[2] = test system: ATCC strain 43300 Staphylococcus aureus; remark: listed apart in the source
Procedure: Additional antibiotic was added every 24 hours. The growth periods tested were 24 (FIG. 5), 48, 72, 96 and 120 hours.
USP<51> Antimicrobial Effectiveness protocol was used as the template experimental paradigm. […] All concentrations were plated out to the 10^−7 dilutions to ascertain cfu/ml. […] Additional antibiotic was added at the initial concentration every 24 hours.
ATCC strain 43300 Staphylococcus aureus was streaked out for isolations. An isolated colony was chosen, streaked again and incubated. Isolate was chosen and then diluted to a McFarland standard of one. The estimated value was then taken to inoculate tubes containing growth media and 12, 30 or 60 μg/ml methicillin with approximately 10^5 cfu/ml. These tubes were incubated and plated for counting cfu.
Material was calculated on a 10 ml volume. Sterile methicillin was added to each experimental condition to a final concentration of 12, 30 or 60 μg/ml antibiotic. Lactose Broth positive controls both with and without the 12 μg/ml, 30 μg/ml, 60 μg/ml antibiotic were inoculated with MRSA. […] Tubes were set up in singlet, but plated in triplicate, as described below.
All tubes were then inoculated with a dilution of the selected ATCC strain 43300 Staphylococcus aureus clone giving a final level of colony forming units of 1.49×10^5/ml (log=5.17). The tubes were incubated at 25° C. and mixed periodically. Antibiotic was re-inoculated every 24 hours at the initial concentration to maintain pressure on the organism. Plating was done at 24, 48, 72, and 120 hours. Each condition was plated by diluting 1 ml of growth material into 9 ml of MLB diluent broth. […] This mixture was serial diluted down to 10^−7 with 1 ml placed in triplicate in a sterile petri dish at each dilution point. 20 mls of TSA was added to each dilution, swirled and allowed to solidify. All dilutions were placed in a 35° C. incubator for 24 to 72 hours. Bacterial colonies on each plate were counted and the average taken then changed into log format.

[3] = room temperature; cited from earlier work
[4] = test system: ATCC strain 43300 Staphylococcus aureus; experiment: Survival of MRSA in MSM alone, 24 and 48 hours (USP<51> Antimicrobial Effectiveness template); settings: 5-16% MSM alone, 24 or 48 hour time point
Procedure: USP<51> Antimicrobial Effectiveness protocol was used as the template experimental paradigm. […] All concentrations were plated out to the 10^−7 dilutionsto ascertain cfu/ml.
Material was calculated on a 10 ml volume.
All tubes were inoculated with a dilution of MRSA giving a final level of colony forming units of 2.0×10^5/ml (Log=5.23). The tubes were incubated at 25° C. and mixed periodically. Plating was done at 24 and 48 hours. Each condition was plated by diluting 1 ml of growth material into 9 ml of MLB diluent broth. This mixture was serial diluted down to 10^−7, and 1 ml placed in a sterile petri dish at each dilution point. 20 mls of TSA was added to each dilution, swirled and allowed to solidify. All dilutions were placed in a 35° C. incubator for 24 hours. Bacterial colonies on each plate were counted and colony counts changed into log format. A positive and negative control was ascertained.

[5] = 11% MSM, 60 μg/ml oxacillin, 24 hours
[6] = 12% MSM, 12 μg/ml oxacillin, 24 hours
[7] = 12% MSM, 12 μg/ml oxacillin, 48 hours
[8] = 12% MSM, 30 μg/ml oxacillin, 24 hours
[9] = 12% MSM, 60 μg/ml oxacillin, 24 hours
[10] = 13% MSM, 12 μg/ml oxacillin, 24 hours
[11] = 13% MSM, 12 μg/ml oxacillin, 48 hours
[12] = 13% MSM, 30 μg/ml oxacillin, 24 hours
[13] = 13% MSM, 60 μg/ml oxacillin, 24 hours
[14] = 14% MSM, 12 μg/ml oxacillin, 24 hours
[15] = 14% MSM, 12 μg/ml oxacillin, 48 hours
[16] = 14% MSM, 12 μg/ml oxacillin, 72 hours
[17] = 14% MSM, 30 μg/ml oxacillin, 24 hours
[18] = 14% MSM, 60 μg/ml oxacillin, 24 hours
[19] = 15% MSM, 12 μg/ml oxacillin, 24 hours
[20] = 15% MSM, 12 μg/ml oxacillin, 48 hours
[21] = 15% MSM, 30 μg/ml oxacillin, 24 hours
[22] = 15% MSM, 60 μg/ml oxacillin, 24 hours
[23] = 16% MSM, 12 μg/ml oxacillin, 24 hours
[24] = 16% MSM, 12 μg/ml oxacillin, 48 hours
[25] = 16% MSM, 30 μg/ml oxacillin, 24 hours
[26] = 16% MSM, 60 μg/ml oxacillin, 24 hours

CS(C)(=O)=O [MSM, methylsulfonylmethane]
survival ([1]; 11% MSM, 30 μg/ml oxacillin, 24 hours): 3.9 × 10^3 cfu/ml and 3.7 × 10^3 cfu/ml
Average Log ([1]; 11% MSM, 30 μg/ml oxacillin, 48 hours): 2.4 Log
Average Log ([1]; 11% MSM, 30 μg/ml oxacillin, 72 hours): 3.2 Log
Average Log [1, 5]: 2.83 Log
survival [1, 5]: 6.7 × 10^2 cfu/ml and 6.9 × 10^2 cfu/ml
Average Log ([1]; 11% MSM, 60 μg/ml oxacillin, 48 hours): 2.1 Log
Average Log [1, 6]: 3.85 Log
survival [1, 6]: 7.0 × 10^3 cfu/ml and 7.3 × 10^3 cfu/ml
Average Log [1, 7]: 2.8 Log
survival [1, 7]: 3.6 × 10^2 cfu/ml and 4.0 × 10^2 cfu/ml and 4.2 × 10^2 cfu/ml
Average Log ([1]; 12% MSM, 12 μg/ml oxacillin, 72 hours): 3.1 Log
Average Log [1, 8]: 3.59 Log
survival [1, 8]: 3.9 × 10^3 cfu/ml
Average Log ([1]; 12% MSM, 30 μg/ml oxacillin, 48 hours): 2.6 Log
Average Log ([1]; 12% MSM, 30 μg/ml oxacillin, 72 hours): 2.6 Log
Average Log [1, 9]: 2.86 Log
survival [1, 9]: 7.3 × 10^2 cfu/ml and 7.1 × 10^2 cfu/ml and 7.5 × 10^2 cfu/ml
Average Log ([1]; 12% MSM, 60 μg/ml oxacillin, 48 hours): 2.0 Log
Average Log ([1]; 12% MSM, 60 μg/ml oxacillin, 72 hours): 2.4 Log
log reduction in the number of cfu/ml ([1]; 12%-16% MSM, 12 μg/ml oxacillin, 72 hours): 1 log
Average Log [1, 10]: 3.95 Log
survival [1, 10]: 9.0 × 10^3 cfu/ml and 8.7 × 10^3 cfu/ml and 9.2 × 10^3 cfu/ml
Average Log [1, 11]: 2.8 Log
survival [1, 11]: 6.8 × 10^2 cfu/ml and 5.8 × 10^2 cfu/ml
Average Log ([1]; 13% MSM, 12 μg/ml oxacillin, 72 hours): 2.7 Log
Average Log [1, 12]: 3.62 Log
survival [1, 12]: 4.4 × 10^3 cfu/ml and 4.1 × 10^3 cfu/ml and 4.2 × 10^3 cfu/ml
Average Log ([1]; 13% MSM, 30 μg/ml oxacillin, 48 hours): 2.5 Log
Average Log ([1]; 13% MSM, 30 μg/ml oxacillin, 72 hours): 1.8 Log
Average Log [1, 13]: 2.80 Log
survival [1, 13]: 6.3 × 10^2 cfu/ml and 6.0 × 10^2 cfu/ml
Average Log ([1]; 13% MSM, 60 μg/ml oxacillin, 48 hours): 1.7 Log
Average Log ([1]; 13% MSM, 60 μg/ml oxacillin, 72 hours): 1 Log
Average Log [1, 14]: 4.00 Log
survival [1, 14]: 1.00 × 10^4 cfu/ml and 1.02 × 10^4 cfu/ml and 1.01 × 10^4 cfu/ml
Average Log [1, 15]: 1.0 Log
log reduction in the number of cfu/ml [1, 15]: 4.5 log
survival [1, 15]: 1.0 × 10^1 cfu/ml and 1.2 × 10^1 cfu/ml and 1.1 × 10^1 cfu/ml
Average Log [1, 16]: 2.0 Log
log reduction in the number of cfu/ml [1, 16]: 4.5 log
Average Log [1, 17]: 3.78 Log
survival [1, 17]: 6.1 × 10^3 cfu/ml and 6.0 × 10^3 cfu/ml
Average Log ([1]; 14% MSM, 30 μg/ml oxacillin, 48 hours): 2.5 Log
Average Log ([1]; 14% MSM, 30 μg/ml oxacillin, 72 hours): 2.2 Log
Average Log [1, 18]: 2.03 Log
log reduction in the number of cfu/ml [1, 18]: 3.5 log
survival [1, 18]: 1.8 × 10^2 cfu/ml and 1.7 × 10^2 cfu/ml
Average Log ([1]; 14% MSM, 60 μg/ml oxacillin, 48 hours): 2.2 Log
Average Log ([1]; 14% MSM, 60 μg/ml oxacillin, 72 hours): 1.5 Log
Average Log [1, 19]: 4.11 Log
survival [1, 19]: 1.35 × 10^4 cfu/ml and 1.30 × 10^4 cfu/ml and 1.29 × 10^4 cfu/ml
Average Log [1, 20]: 3.7 Log
survival [1, 20]: 5.0 × 10^3 cfu/ml and 4.5 × 10^3 cfu/ml and 4.6 × 10^3 cfu/ml
Average Log ([1]; 15% MSM, 12 μg/ml oxacillin, 72 hours): 2.3 Log
Average Log [1, 21]: 3.94 Log
survival [1, 21]: 8.7 × 10^3 cfu/ml and 8.9 × 10^3 cfu/ml and 8.8 × 10^3 cfu/ml
Average Log ([1]; 15% MSM, 30 μg/ml oxacillin, 48 hours): 2.8 Log
Average Log ([1]; 15% MSM, 30 μg/ml oxacillin, 72 hours): 2.4 Log
Average Log [1, 22]: 3.81 Log
survival [1, 22]: 6.6 × 10^3 cfu/ml and 6.2 × 10^3 cfu/ml and 6.4 × 10^3 cfu/ml
Average Log ([1]; 15% MSM, 60 μg/ml oxacillin, 48 hours): 2.1 Log
Average Log [1, 23]: 3.88 Log
survival [1, 23]: 7.6 × 10^3 cfu/ml and 7.4 × 10^3 cfu/ml
Average Log [1, 24]: 3.7 Log
survival [1, 24]: 4.2 × 10^3 cfu/ml and 5.0 × 10^3 cfu/ml and 4.3 × 10^3 cfu/ml
Average Log ([1]; 16% MSM, 12 μg/ml oxacillin, 72 hours): 2.1 Log
Average Log [1, 25]: 3.91 Log
survival [1, 25]: 8.3 × 10^3 cfu/ml and 8.0 × 10^3 cfu/ml
Average Log ([1]; 16% MSM, 30 μg/ml oxacillin, 48 hours): 2.6 Log
Average Log ([1]; 16% MSM, 30 μg/ml oxacillin, 72 hours): 1.9 Log
Average Log [1, 26]: 3.83 Log
survival [1, 26]: 6.9 × 10^3 cfu/ml
Average Log ([1]; 16% MSM, 60 μg/ml oxacillin, 48 hours): 1.9 Log
Average Log ([1]; 16% MSM, 60 μg/ml oxacillin, 72 hours): 1.8 Log
average log reduction in colony count ([2]; 30 μg/ml methicillin, lower end of MSM concentrations, 24 hours): 3 log
log reduction in colony count ([2]; 5% MSM, 60 μg/ml methicillin, 48 hours): 4.1 log
log reduction in colony count ([2]; 6% MSM, 12 μg/ml methicillin, 48 hours): 4.1 log
log reduction in colony count ([2]; 6% MSM, 30 μg/ml methicillin, 24 hours): 2.8 log
log reduction ([2]; 16% MSM, 12 μg/ml methicillin, 24 hours): 2.2 log
water solubility [3]: ≥ 20%
effect on survival [4]: none of the concentrations of MSM tested had any effect on the survival
